Source: PubChem BioAssay AID1963962 (Molecular Pharmacology Branch, DTP, NCI, 2024)
One block for each compound: values may come before it.

Tested on: 967376-340-R-J2-PDC multicell spheroid viability
Experiment: Anticancer human tumor 967376-340-R-J2-PDC patient-derived colon adenocarcinoma cell line growth inhibition [PI3K]
Settings: for IC50: curve of first compound; for viability, T/C: stronger effect = lower value
Method in brief: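 Complex 3D spheroids (cancer cells + endothelial HUVEC + mesenchymal stem cells); drug pairs of targeted agent x inavolisib/alpelisib/duvelisib/copanlisib; half-log series from ~Cmax, max 10 microM if Cmax unknown; endpoint viability.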

[1] = second compound 0.0316 µM, first compound 0.0316 µM
[2] = second compound 0.0316 µM, first compound 0.1 µM
[3] = second compound 0.1 µM, first compound 0.0316 µM
[4] = second compound 0.1 µM, first compound 0.1 µM
[5] = second compound 0.316 µM, first compound 0.0316 µM
[6] = second compound 0.316 µM, first compound 0.1 µM
[7] = second compound 1 µM, first compound 0.0316 µM
[8] = second compound 1 µM, first compound 0.1 µM
[9] = second compound 3.16 µM, first compound 0.0316 µM
[10] = second compound 3.16 µM, first compound 0.1 µM
[11] = second compound 10 µM, first compound 0.0316 µM
[12] = second compound 10 µM, first compound 0.1 µM
[13] = second compound 0.0316 µM, first compound 0.316 µM
[14] = second compound 0.0316 µM, first compound 1 µM
[15] = second compound 0.0316 µM, first compound 3.16 µM
[16] = second compound 0.0316 µM, first compound 10 µM
[17] = second compound 0.1 µM, first compound 0.316 µM
[18] = second compound 0.1 µM, first compound 1 µM
[19] = second compound 0.1 µM, first compound 3.16 µM
[20] = second compound 0.1 µM, first compound 10 µM
[21] = second compound 0.316 µM, first compound 0.316 µM
[22] = second compound 0.316 µM, first compound 1 µM
[23] = second compound 0.316 µM, first compound 3.16 µM
[24] = second compound 0.316 µM, first compound 10 µM
[25] = second compound 1 µM, first compound 0.316 µM
[26] = second compound 1 µM, first compound 1 µM
[27] = second compound 1 µM, first compound 3.16 µM
[28] = second compound 1 µM, first compound 10 µM
[29] = second compound 3.16 µM, first compound 0.316 µM
[30] = second compound 3.16 µM, first compound 1 µM
[31] = second compound 3.16 µM, first compound 3.16 µM
[32] = second compound 3.16 µM, first compound 10 µM
[33] = second compound 10 µM, first compound 0.316 µM
[34] = second compound 10 µM, first compound 1 µM
[35] = second compound 10 µM, first compound 3.16 µM
[36] = second compound 10 µM, first compound 10 µM
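Also: spheroids exposed to agents for 7 days before read-out.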
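For viability, T/C in this document: luminescence used as surrogate of cell viability.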

IC50 (second compound 0.0316 µM): > 0.1 µM
IC50 (second compound 0.1 µM): > 0.1 µM
IC50 (second compound 0.316 µM): > 0.1 µM
IC50 (second compound 1 µM): > 0.1 µM
IC50 (second compound 3.16 µM): > 0.1 µM
IC50 (second compound 10 µM): > 0.1 µM
Structure (SMILES): CC(=O)c1c(C)c2cnc(Nc3ccc(N4CCNCC4)cn3)nc2n(C2CCCC2)c1=O + CC(Nc1ncnc2nc[nH]c12)c1cc2cccc(Cl)c2c(=O)n1-c1ccccc1
viability, T/C (second compound 0.0316 µM, first compound 0.000316 µM): 81.1%
viability, T/C (second compound 0.0316 µM, first compound 0.001 µM): 101%
viability, T/C (second compound 0.0316 µM, first compound 0.00316 µM): 92.2%
viability, T/C (second compound 0.0316 µM, first compound 0.01 µM): 92.7%
viability, T/C [1]: 79.9%
viability, T/C [2]: 82.6%
viability, T/C (second compound 0.1 µM, first compound 0.000316 µM): 114%
viability, T/C (second compound 0.1 µM, first compound 0.001 µM): 89.4%
viability, T/C (second compound 0.1 µM, first compound 0.00316 µM): 101%
viability, T/C (second compound 0.1 µM, first compound 0.01 µM): 89.4%
viability, T/C [3]: 84.4%
viability, T/C [4]: 83.8%
viability, T/C (second compound 0.316 µM, first compound 0.000316 µM): 101%
viability, T/C (second compound 0.316 µM, first compound 0.001 µM): 96%
viability, T/C (second compound 0.316 µM, first compound 0.00316 µM): 113%
viability, T/C (second compound 0.316 µM, first compound 0.01 µM): 97%
viability, T/C [5]: 79.3%
viability, T/C [6]: 78.6%
viability, T/C (second compound 1 µM, first compound 0.000316 µM): 90%
viability, T/C (second compound 1 µM, first compound 0.001 µM): 103%
viability, T/C (second compound 1 µM, first compound 0.00316 µM): 91%
viability, T/C (second compound 1 µM, first compound 0.01 µM): 80.3%
viability, T/C [7]: 98.6%
viability, T/C [8]: 88.2%
viability, T/C (second compound 3.16 µM, first compound 0.000316 µM): 89.6%
viability, T/C (second compound 3.16 µM, first compound 0.001 µM): 109%
viability, T/C (second compound 3.16 µM, first compound 0.00316 µM): 95.1%
viability, T/C (second compound 3.16 µM, first compound 0.01 µM): 90.3%
viability, T/C [9]: 84.1%
viability, T/C [10]: 63.9%
viability, T/C (second compound 10 µM, first compound 0.000316 µM): 83.5%
viability, T/C (second compound 10 µM, first compound 0.001 µM): 89.5%
viability, T/C (second compound 10 µM, first compound 0.00316 µM): 81.3%
viability, T/C (second compound 10 µM, first compound 0.01 µM): 88%
viability, T/C [11]: 87.5%
viability, T/C [12]: 86.9%

IC50 (second compound 0.0316 µM): > 10 µM
IC50 (second compound 0.1 µM): > 10 µM
IC50 (second compound 0.316 µM): > 10 µM
IC50 (second compound 1 µM): > 10 µM
IC50 (second compound 3.16 µM): > 10 µM
IC50 (second compound 10 µM): > 10 µM
Structure (SMILES): CCCS(=O)(=O)Nc1ccc(F)c(C(=O)c2c[nH]c3ncc(-c4ccc(Cl)cc4)cc23)c1F + CC(Nc1ncnc2nc[nH]c12)c1cc2cccc(Cl)c2c(=O)n1-c1ccccc1
viability, T/C [1]: 122%
viability, T/C [2]: 125%
viability, T/C [13]: 109%
viability, T/C [14]: 113%
viability, T/C [15]: 103%
viability, T/C [16]: 58.9%
viability, T/C [3]: 97.2%
viability, T/C [4]: 106%
viability, T/C [17]: 99.1%
viability, T/C [18]: 90.5%
viability, T/C [19]: 92%
viability, T/C [20]: 52.7%
viability, T/C [5]: 103%
viability, T/C [6]: 89.1%
viability, T/C [21]: 96.6%
viability, T/C [22]: 96.3%
viability, T/C [23]: 109%
viability, T/C [24]: 60.4%
viability, T/C [7]: 98.2%
viability, T/C [8]: 95.4%
viability, T/C [25]: 105%
viability, T/C [26]: 92.7%
viability, T/C [27]: 110%
viability, T/C [28]: 58.4%
viability, T/C [9]: 119%
viability, T/C [10]: 79.9%
viability, T/C [29]: 92.2%
viability, T/C [30]: 111%
viability, T/C [31]: 100%
viability, T/C [32]: 74.9%
viability, T/C [11]: 84.2%
viability, T/C [12]: 87.1%
viability, T/C [33]: 80%
viability, T/C [34]: 88.7%
viability, T/C [35]: 98.7%
viability, T/C [36]: 61.1%

IC50 (second compound 0.0316 µM): > 10 µM
IC50 (second compound 0.1 µM): > 10 µM
IC50 (second compound 0.316 µM): > 10 µM
IC50 (second compound 1 µM): > 10 µM
IC50 (second compound 3.16 µM): > 10 µM
IC50 (second compound 10 µM): > 10 µM
Structure (SMILES): CNC(=O)c1ccc(N2C(=S)N(c3ccc(C#N)c(C(F)(F)F)c3)C(=O)C2(C)C)cc1F + CC(Nc1ncnc2nc[nH]c12)c1cc2cccc(Cl)c2c(=O)n1-c1ccccc1
viability, T/C [1]: 140%
viability, T/C [2]: 88.7%
viability, T/C [13]: 92%
viability, T/C [14]: 101%
viability, T/C [15]: 134%
viability, T/C [16]: 88.3%
viability, T/C [3]: 109%
viability, T/C [4]: 109%
viability, T/C [17]: 94.2%
viability, T/C [18]: 104%
viability, T/C [19]: 99.3%
viability, T/C [20]: 73.1%
viability, T/C [5]: 89.6%
viability, T/C [6]: 104%
viability, T/C [21]: 82.2%
viability, T/C [22]: 92%
viability, T/C [23]: 106%
viability, T/C [24]: 105%
viability, T/C [7]: 81.4%
viability, T/C [8]: 80.3%
viability, T/C [25]: 72.3%
viability, T/C [26]: 86.1%
viability, T/C [27]: 113%
viability, T/C [28]: 88.5%
viability, T/C [9]: 78.5%
viability, T/C [10]: 89%
viability, T/C [29]: 82%
viability, T/C [30]: 80.1%
viability, T/C [31]: 102%
viability, T/C [32]: 87.5%
viability, T/C [11]: 63.9%
viability, T/C [12]: 83.7%
viability, T/C [33]: 70%
viability, T/C [34]: 70.6%
viability, T/C [35]: 92.3%
viability, T/C [36]: 77.4%

IC50 (second compound 0.0316 µM): 1.46 µM
IC50 (second compound 0.1 µM): 2.11 µM
IC50 (second compound 0.316 µM): 1.92 µM
IC50 (second compound 1 µM): 1.33 µM
IC50 (second compound 3.16 µM): 1.34 µM
IC50 (second compound 10 µM): 0.666 µM
Structure (SMILES): Cn1cnc2c(F)c(Nc3ccc(Br)cc3Cl)c(C(=O)NOCCO)cc21 + CC(Nc1ncnc2nc[nH]c12)c1cc2cccc(Cl)c2c(=O)n1-c1ccccc1
viability, T/C (second compound 0.0316 µM, first compound 0.00949 µM): 73.5%
viability, T/C (second compound 0.0316 µM, first compound 0.03 µM): 112%
viability, T/C (second compound 0.0316 µM, first compound 0.0949 µM): 95.4%
viability, T/C (second compound 0.0316 µM, first compound 0.3 µM): 75.5%
viability, T/C (second compound 0.0316 µM, first compound 0.949 µM): 61.4%
viability, T/C (second compound 0.0316 µM, first compound 3 µM): 34.5%
viability, T/C (second compound 0.1 µM, first compound 0.00949 µM): 106%
viability, T/C (second compound 0.1 µM, first compound 0.03 µM): 107%
viability, T/C (second compound 0.1 µM, first compound 0.0949 µM): 87.5%
viability, T/C (second compound 0.1 µM, first compound 0.3 µM): 102%
viability, T/C (second compound 0.1 µM, first compound 0.949 µM): 74.7%
viability, T/C (second compound 0.1 µM, first compound 3 µM): 38.5%
viability, T/C (second compound 0.316 µM, first compound 0.00949 µM): 78.8%
viability, T/C (second compound 0.316 µM, first compound 0.03 µM): 104%
viability, T/C (second compound 0.316 µM, first compound 0.0949 µM): 97.9%
viability, T/C (second compound 0.316 µM, first compound 0.3 µM): 78.3%
viability, T/C (second compound 0.316 µM, first compound 0.949 µM): 61.9%
viability, T/C (second compound 0.316 µM, first compound 3 µM): 43%
viability, T/C (second compound 1 µM, first compound 0.00949 µM): 97.1%
viability, T/C (second compound 1 µM, first compound 0.03 µM): 97.4%
viability, T/C (second compound 1 µM, first compound 0.0949 µM): 90.1%
viability, T/C (second compound 1 µM, first compound 0.3 µM): 78.1%
viability, T/C (second compound 1 µM, first compound 0.949 µM): 64.5%
viability, T/C (second compound 1 µM, first compound 3 µM): 21.1%
viability, T/C (second compound 3.16 µM, first compound 0.00949 µM): 82%
viability, T/C (second compound 3.16 µM, first compound 0.03 µM): 83.6%
viability, T/C (second compound 3.16 µM, first compound 0.0949 µM): 70.7%
viability, T/C (second compound 3.16 µM, first compound 0.3 µM): 97%
viability, T/C (second compound 3.16 µM, first compound 0.949 µM): 61.6%
viability, T/C (second compound 3.16 µM, first compound 3 µM): 22.6%
viability, T/C (second compound 10 µM, first compound 0.00949 µM): 78.4%
viability, T/C (second compound 10 µM, first compound 0.03 µM): 64.3%
viability, T/C (second compound 10 µM, first compound 0.0949 µM): 69.2%
viability, T/C (second compound 10 µM, first compound 0.3 µM): 66%
viability, T/C (second compound 10 µM, first compound 0.949 µM): 43.1%
viability, T/C (second compound 10 µM, first compound 3 µM): 13.7%
